Experimental data: ChEMBL document CHEMBL3885861, “Open TG-GATES”

Species: Rattus norvegicus
Assay: Open TG-GATES - Regimen: Single
Format: toxicity, organism-based, Sprague-Dawley
Set-up: regimen Single, gender Male, age 6 weeks
Details: in vivo, ip, 0.03 mg/kg, route intraperitoneal injection, dose 30 ug/Kg, dose level Low; for APTT / Bas / Eos / Fbg / Hb / Ht / Lym / MCH / MCHC / MCV / Mono / Neu / PT / Plat / RBC / Ret / WBC: tissue Blood; for KIDNEY_L / KIDNEY_R / KIDNEY_TOTAL: tissue Kidney; for LIVER: tissue Liver; for A/G / ALP / ALT / AST / BUN / CRE / Ca / Cl / DBIL / GLC / IP / K / LDH / Na / PL / RALB / TBIL / TC / TG / TP / gamma-GTP: tissue Plasma

CC(=O)N[C@H]1[C@@H](O[C@@H]2O[C@H](CC(O)[C@H]3O[C@@H](n4ccc(=O)[nH]c4=O)[C@H](O)[C@@H]3O)[C@H](O)[C@H](O)[C@H]2NC(=O)/C=C/CC(C)C)O[C@H](CO)[C@@H](N)[C@@H]1O (some centres not stated) [TUNICAMYCIN] showed a TERMINAL_BW (3 h) of 222.8 g, an APTT (3 h) of 22.4 s and a Bas (3 h) of 0%. The Eos (3 h) was 0.6%, the Fbg (3 h) was 302.4 mg/dL and the Hb (3 h) was 13 g/dL. The Ht (3 h) was 39.3%, the Lym (3 h) was 81% and the MCH (3 h) was 20.5 pg. For the same compound, the MCHC (3 h) was 33%, the MCV (3 h) was 62.1 fL and the Mono (3 h) was 3%. The Neu (3 h) was 14.4%, the PT (3 h) was 15.7 s and the Plat (3 h) was 115.4 x10_4/uL. The RBC (3 h) was 633.2 x10_4/ul, the Ret (3 h) was 8.1% and the WBC (3 h) was 99.9 x10_2/uL. For the same compound, the KIDNEY_L (3 h) was 1 g, the KIDNEY_R (3 h) was 1 g and the KIDNEY_TOTAL (3 h) was 2 g. It also gave an LIVER (3 h) of 10.4 g, an A/G (3 h) of 1.2 and an ALP (3 h) of 1404.2 IU/L. It also gave an ALT (3 h) of 37.6 IU/L, an AST (3 h) of 69.6 IU/L and a BUN (3 h) of 15.4 mg/dL. It also gave a CRE (3 h) of 0.2 mg/dL, a Ca (3 h) of 10.8 mg/dL and a Cl (3 h) of 106 meq/L. The DBIL (3 h) was 0 mg/dL, the GLC (3 h) was 173.4 mg/dL and the IP (3 h) was 7.5 mg/dL. It also gave a K (3 h) of 4.5 meq/L, an LDH (3 h) of 151.2 IU/L and a Na (3 h) of 140.8 meq/L. The PL (3 h) was 126 mg/dL, the RALB (3 h) was 2.9 g/dL and the TBIL (3 h) was 0.01 mg/dL. It also gave a TC (3 h) of 71.8 mg/dL, a TG (3 h) of 78.6 mg/dL and a TP (3 h) of 5.4 g/dL. It also gave a gamma-GTP (3 h) of 1.4 IU/L, a TERMINAL_BW (6 h) of 219.6 g and an APTT (6 h) of 21.8 s. It also gave a Bas (6 h) of 0%, an Eos (6 h) of 0.4% and a Fbg (6 h) of 295 mg/dL. It also gave a Hb (6 h) of 13.2 g/dL, a Ht (6 h) of 39.8% and a Lym (6 h) of 77.8%. It also gave an MCH (6 h) of 20.9 pg, an MCHC (6 h) of 33% and an MCV (6 h) of 63.3 fL. For the same compound, the Mono (6 h) was 2%, the Neu (6 h) was 18.6% and the PT (6 h) was 15.6 s. The Plat (6 h) was 114.3 x10_4/uL, the RBC (6 h) was 629.2 x10_4/ul and the Ret (6 h) was 7.1%. For the same compound, the WBC (6 h) was 90.7 x10_2/uL, the KIDNEY_L (6 h) was 1 g and the KIDNEY_R (6 h) was 1 g. For the same compound, the KIDNEY_TOTAL (6 h) was 2 g, the LIVER (6 h) was 9.8 g and the A/G (6 h) was 1.2. The ALP (6 h) was 1356.2 IU/L, the ALT (6 h) was 42.6 IU/L and the AST (6 h) was 74.6 IU/L. For the same compound, the BUN (6 h) was 12.6 mg/dL, the CRE (6 h) was 0.2 mg/dL and the Ca (6 h) was 10.8 mg/dL. For the same compound, the Cl (6 h) was 105.2 meq/L, the DBIL (6 h) was 0 mg/dL and the GLC (6 h) was 168.2 mg/dL. For the same compound, the IP (6 h) was 8.9 mg/dL, the K (6 h) was 4.4 meq/L and the LDH (6 h) was 157.8 IU/L. It also gave a Na (6 h) of 141.2 meq/L, a PL (6 h) of 120.6 mg/dL and an RALB (6 h) of 2.9 g/dL. For the same compound, the TBIL (6 h) was 0.018 mg/dL, the TC (6 h) was 69.2 mg/dL and the TG (6 h) was 57.6 mg/dL. The TP (6 h) was 5.3 g/dL, the gamma-GTP (6 h) was 1.2 IU/L and the TERMINAL_BW (9 h) was 213.3 g. For the same compound, the APTT (9 h) was 23.6 s, the Bas (9 h) was 0% and the Eos (9 h) was 0.6%. The Fbg (9 h) was 315.4 mg/dL, the Hb (9 h) was 13.5 g/dL and the Ht (9 h) was 41%. It also gave a Lym (9 h) of 83.8%, an MCH (9 h) of 21 pg and an MCHC (9 h) of 32.9%. It also gave an MCV (9 h) of 63.8 fL, a Mono (9 h) of 2% and a Neu (9 h) of 12.8%. For the same compound, the PT (9 h) was 15.8 s, the Plat (9 h) was 112.5 x10_4/uL and the RBC (9 h) was 643.2 x10_4/ul. The Ret (9 h) was 7.5%, the WBC (9 h) was 85.7 x10_2/uL and the KIDNEY_L (9 h) was 0.9 g. For the same compound, the KIDNEY_R (9 h) was 1 g, the KIDNEY_TOTAL (9 h) was 1.9 g and the LIVER (9 h) was 8.9 g. It also gave an A/G (9 h) of 1.2, an ALP (9 h) of 1454.8 IU/L and an ALT (9 h) of 36.4 IU/L. It also gave an AST (9 h) of 71.2 IU/L, a BUN (9 h) of 12.8 mg/dL and a CRE (9 h) of 0.1 mg/dL. The Ca (9 h) was 10.8 mg/dL, the Cl (9 h) was 106 meq/L and the DBIL (9 h) was 0 mg/dL. For the same compound, the GLC (9 h) was 181 mg/dL, the IP (9 h) was 9.3 mg/dL and the K (9 h) was 4.4 meq/L. For the same compound, the LDH (9 h) was 174 IU/L, the Na (9 h) was 142.2 meq/L and the PL (9 h) was 129 mg/dL. It also gave an RALB (9 h) of 3 g/dL, a TBIL (9 h) of 0.01 mg/dL and a TC (9 h) of 75.4 mg/dL. For the same compound, the TG (9 h) was 70.4 mg/dL, the TP (9 h) was 5.5 g/dL and the gamma-GTP (9 h) was 1 IU/L. For the same compound, the TERMINAL_BW (24 h) was 234.5 g, the APTT (24 h) was 21.3 s and the Bas (24 h) was 0%. The Eos (24 h) was 0.8%, the Fbg (24 h) was 308.6 mg/dL and the Hb (24 h) was 12.8 g/dL. For the same compound, the Ht (24 h) was 39.3%, the Lym (24 h) was 82% and the MCH (24 h) was 20.1 pg. It also gave an MCHC (24 h) of 32.5%, an MCV (24 h) of 61.6 fL and a Mono (24 h) of 2.6%. It also gave a Neu (24 h) of 13.4%, a PT (24 h) of 15.7 s and a Plat (24 h) of 114.8 x10_4/uL. It also gave an RBC (24 h) of 637.8 x10_4/ul, a Ret (24 h) of 7.4% and a WBC (24 h) of 75.9 x10_2/uL. It also gave a KIDNEY_L (24 h) of 1 g, a KIDNEY_R (24 h) of 1.1 g and a KIDNEY_TOTAL (24 h) of 2.1 g. For the same compound, the LIVER (24 h) was 11.1 g, the A/G (24 h) was 1.2 and the ALP (24 h) was 1690.8 IU/L. The ALT (24 h) was 40.4 IU/L, the AST (24 h) was 67.8 IU/L and the BUN (24 h) was 16.6 mg/dL. The CRE (24 h) was 0.1 mg/dL, the Ca (24 h) was 10.4 mg/dL and the Cl (24 h) was 105.6 meq/L. The DBIL (24 h) was 0 mg/dL, the GLC (24 h) was 183.4 mg/dL and the IP (24 h) was 7.3 mg/dL. For the same compound, the K (24 h) was 4.6 meq/L, the LDH (24 h) was 148 IU/L and the Na (24 h) was 141.2 meq/L. The PL (24 h) was 141.6 mg/dL, the RALB (24 h) was 3 g/dL and the TBIL (24 h) was 0.006 mg/dL. The TC (24 h) was 76.4 mg/dL, the TG (24 h) was 98.6 mg/dL and the TP (24 h) was 5.6 g/dL. The gamma-GTP (24 h) was 1.4 IU/L.
